A word on the EC50: it is the concentration needed to bring the measured effect to its halfway point.

The subject of one test is HCV genotype 1 b (HCV replicon system). In words: HCV replicon system genotype 1b, Renilla luciferase activity. The class given is cell-based. The settings on record: Hepatitis C virus, 72 h; HCV genotype 1b replicon, Rluc, 3 days; range limits given with own units (pM to nM); read-out: Replicon EC50 1b type. The protocol: From human liver cells (Huh7.5.1 cell) infected by hepatitis C virus, the anti-virus effects by the compound of the present invention were measured. From HCV genotype 1 b (HCV replicon system), genotype 2a (HCV cell culture system, HCVcc), and genotype 3a, the EC50 values were measured.
In order to measure the EC50 value from HCV genotype 1 b, the degrees of HCV replication inhibitory activities of an experimental compound were measured. The EC50 value was measured by treating the experimental compound with the HCV replicon systems (genotype 1 b) having Renilla luciferase (Rluc) genes and genotype 1 b non-structure genes under various concentration conditions to compare the activity degree of the luciferase after 3 days elapsed time with that of the control.
(In general: A replicon is a self-replicating genome or part of one, used to study replication in cells.)
Regarding `COCCOCCn1c2cc(NC(=O)[C@@H]3CCCN3C(=O)[C@H](NC(=O)OC)c3ccccc3)ccc2c2ccc(NC(=O)[C@@H]3CCCN3C(=O)[C@H](NC(=O)OC)c3ccccc3)cc21` [Example 22, dimethyl ((1R,1′R)-((2S,2′S)-(((9-(2-(2-methoxyethoxy)ethyl)-9H-carbazole-2,7-diyl)bis(azanediyl))bis(carbonyl))bis(pyrrolidine-2,1-diyl))bis(2-oxo-1-phenylethane-2,1-diyl))dicarbamate], the EC50 is 250 to 1250 pM.

Still in this test, the particulars now being: Hepatitis C virus, 72 h; HCV genotype 1b replicon, Rluc, 3 days; read-out: Replicon EC50 1b type.
`CCCCn1c2cc(NC(=O)[C@@H]3CCCN3C(=O)[C@H](NC(=O)OC)c3ccccc3)ccc2c2ccc(NC(=O)[C@@H]3CCCN3C(=O)[C@H](NC(=O)OC)c3ccccc3)cc21` [Example 1, dimethyl ((1R,1′R)-((2S,2′S)-(((9-butyl-9H-carbazole-2,7-diyl)bis(azanediyl))bis(carbonyl))bis(pyrrolidine-2,1-diyl))bis(2-oxo-1-phenylethane-2,1-diyl))dicarbamate]: the EC50 amounted to 10.4 pM.
Same read-out and setting: the figure for `CCCCn1c2cc(NC(=O)[C@@H]3CCCN3C(=O)[C@H](NC(=O)OC)C(C)C)ccc2c2ccc(NC(=O)[C@@H]3CCCN3C(=O)[C@H](NC(=O)OC)C(C)C)cc21` [Example 2, dimethyl ((2R,2′R)-((2S,2′S)-(((9-butyl-9H-carbazole-2,7-diyl)bis(azanediyl))bis(carbonyl))bis(pyrrolidine-2,1-diyl))bis(3-methyl-1-oxobutane-1,2-diyl))dicarbamate] is over 1000 pM.
For `CCCCn1c2cc(NC(=O)C3CCCN3C(=O)[C@@H](NC(=O)OC)c3ccccc3)ccc2c2ccc(NC(=O)[C@@H]3CCCN3C(=O)[C@@H](NC(=O)OC)c3ccccc3)cc21` (stereo partly drawn) [Example 3, dimethyl ((1S,1′S)-((2S,2′S)-(((9-butyl-9H-carbazole-2,7-diyl)bis(azanediyl))bis(carbonyl))bis(pyrrolidine-2,1-diyl))bis(2-oxo-1-phenylethane-2,1-diyl))carbamate], the EC50 is over 1000 pM.
Take `CCCCn1c2cc(NC(=O)[C@@H]3CCCN3C(=O)[C@@H](NC(=O)OC)C(C)C)ccc2c2ccc(NC(=O)[C@@H]3CCCN3C(=O)[C@@H](NC(=O)OC)C(C)C)cc21` [Example 4, dimethyl ((2S,2′S)-((2S,2′S)-(((9-butyl-9H-carbazole-2,7-diyl)bis(azanediyl))bis(carbonyl))bis(pyrrolidine-2,1-diyl))bis(3-methyl-1-oxobutane-1,2-diyl))dicarbamate]: the 50% effective concentration (EC50) lay in the range of 10000 to 100000 pM.
For the compound `CCCCn1c2cc(NC(=O)C3CCCN3C(=O)[C@H](C(C)C)N3CCOC3=O)ccc2c2ccc(NC(=O)[C@@H]3CCCN3C(=O)[C@H](C(C)C)N3CCOC3=O)cc21` (stereo partly drawn) [Example 5, (2S,2′S)—N,N′-(9-butyl-9H-carbazole-2,7-diyl)bis(1-((S)-3-methyl-3-2-(2-oxooxazolidine-3-yl)butanoyl)pyrrolidine-2-carboxamide)], the EC50 was over 100000 pM.
As to `COC(=O)N[C@@H](C(=O)N1CCC[C@H]1C(=O)Nc1ccc2c3ccc(NC(=O)[C@@H]4CCCN4C(=O)[C@H](NC(=O)OC)c4ccccc4)cc3n(C)c2c1)c1ccccc1` [Example 6, dimethyl ((1R,1′R)-((2S,2′S)-(((9-methyl-9H-carbazole-2,7-diyl)bis(azanediyl))bis(carbonyl))bis(pyrrolidine-2,1-diyl))bis(2-oxo-1-phenylethane-2,1-diyl))dicarbamate], the 50% effective concentration (EC50) amounted to 19.5 pM.
In the case of `COC(=O)N[C@@H](C(=O)N1CCC[C@H]1C(=O)Nc1ccc2c3ccc(NC(=O)[C@@H]4CCCN4C(=O)[C@H](NC(=O)OC)C(C)C)cc3n(C)c2c1)C(C)C` [Example 7, dimethyl ((2R,2′R)-((2S,2′S)-(((9-methyl-9H-carbazole-2,7-diyl)bis(azanediyl))bis(carbonyl))bis(pyrrolidine-2,1-diyl))bis(3-methyl-1-oxobutane-1,2-diyl))dicarbamate], the EC50 was over 1000 pM.
On to `COC(=O)N[C@H](C(=O)N1CCC[C@H]1C(=O)Nc1ccc2c3ccc(NC(=O)[C@@H]4CCCN4C(=O)[C@@H](NC(=O)OC)c4ccccc4)cc3n(C)c2c1)c1ccccc1` [Example 8, dimethyl ((1S,1′S)-((2S,2′S)-(((9-methyl-9H-carbazole-2,7-diyl)bis(azanediyl))bis(carbonyl))bis(pyrrolidine-2,1-diyl))bis(2-oxo-1-phenylethane-2,1-diyl))dicarbamate], for which the concentration giving a half-maximal response (EC50) was over 1000 pM.
Take `COC(=O)N[C@H](C(=O)N1CCC[C@H]1C(=O)Nc1ccc2c3ccc(NC(=O)[C@@H]4CCCN4C(=O)[C@@H](NC(=O)OC)C(C)C)cc3n(C)c2c1)C(C)C` [Example 9, dimethyl ((2S,2′S)-((2S,2′S)-(((9-methyl-9H-carbazole-2,7-diyl)bis(azanediyl))bis(carbonyl))bis(pyrrolidine-2,1-diyl))bis(3-methyl-1-oxobutane-1,2-diyl))dicarbamate]: the 50% effective concentration (EC50) was over 100000 pM.
On to `CC(C)[C@@H](C(=O)N1CCC[C@H]1C(=O)Nc1ccc2c3ccc(NC(=O)[C@@H]4CCCN4C(=O)[C@H](C(C)C)N4CCOC4=O)cc3n(C)c2c1)N1CCOC1=O` [Example 10, (2S,2′S)—N,N′-(9-methyl-9H-carbazole-2,7-diyl)bis(1-((S)-3-methyl-2-(2-oxazolidine-3-yl)butanoyl)pyrrolidine-2-carboxamide)], for which the EC50 is over 100000 pM.
Regarding `COC(=O)N[C@@H](C(=O)N1CCC[C@H]1C(=O)Nc1ccc2c3ccc(NC(=O)[C@@H]4CCCN4C(=O)[C@H](NC(=O)OC)c4ccccc4)cc3n(CCN3CCN(C)CC3)c2c1)c1ccccc1` [Example 11], the concentration for a half-maximal effect (EC50) fell in the range of 10000 to 100000 pM.
For `COC(=O)N[C@@H](C(=O)N1CCC[C@H]1C(=O)Nc1ccc2c3ccc(NC(=O)[C@@H]4CCCN4C(=O)[C@H](NC(=O)OC)c4ccccc4)cc3n(CCN3CCOCC3)c2c1)c1ccccc1` [Example 12, dimethyl ((1R,1′R)-((2S,2′S)-(((9-(2-morpholinoethyl)-9H-carbazole-2,7-diyl)bis(azanediyl))bis(carbonyl))bis(pyrrolidine-2,1-diyl))bis(2-oxo-1-phenylethane-2,1-diyl))carbamate], the EC50 fell in the range of 1000 to 10000 pM.
For `COC(=O)N[C@@H](C(=O)N1CCC[C@H]1C(=O)Nc1ccc2c3ccc(NC(=O)[C@@H]4CCCN4C(=O)[C@H](NC(=O)OC)c4ccccc4)cc3n(Cc3ccccn3)c2c1)c1ccccc1` [Example 17, dimethyl ((1R,1′R)-((2S,2′S)-(((9-(pyridine-2-ylmethyl)-9H-carbazole-2,7-diyl)bis(azanediyl))bis(carbonyl))bis(pyrrolidine-2,1-diyl))bis(2-oxo-1-phenylethane-2,1-diyl))dicarbamate], the EC50 was in the range of 50 to 250 pM.
For `COC(=O)N[C@@H](C(=O)N1CCC[C@H]1C(=O)Nc1ccc2c3ccc(NC(=O)[C@@H]4CCCN4C(=O)[C@H](NC(=O)OC)c4ccccc4)cc3n(Cc3cccnc3)c2c1)c1ccccc1` [Example 18, dimethyl ((1R,1′R)-((2S,2′S)-(((9-(pyridine-3-ylmethyl)-9H-carbazole-2,7-diyl)bis(azanediyl))bis(carbonyl))bis(pyrrolidine-2,1-diyl))bis(2-oxo-1-phenylethane-2,1-diyl))dicarbamate], the EC50 was in the range of 50 to 250 pM.
As for `COCCOCCOCCn1c2cc(NC(=O)[C@@H]3CCCN3C(=O)[C@H](NC(=O)OC)c3ccccc3)ccc2c2ccc(NC(=O)[C@@H]3CCCN3C(=O)[C@H](NC(=O)OC)c3ccccc3)cc21` [Example 23, dimethyl ((1R,1′R)-((2S,2′S)-(((9-(2-(2-(2-methoxyethoxy)ethoxy)ethyl)-9H-carbazole-2,7-diyl)bis(azanediyl))bis(carbonyl))bis(pyrrolidine-2,1-diyl))bis(2-oxo-1-phenylethane-2,1-diyl))dicarbamate], the concentration giving a half-maximal response (EC50) is over 1000 pM.
As to `CCCCCCCCCCn1c2cc(NC(=O)[C@@H]3CCCN3C(=O)[C@H](NC(=O)OC)C(C)C)ccc2c2ccc(NC(=O)[C@@H]3CCCN3C(=O)[C@H](NC(=O)OC)C(C)C)cc21` [Example 25, dimethyl ((2R,2′R)-((2S,2′S)-(((9-decyl-9H-carbazole-2,7-diyl)bis(azanediyl))bis(carbonyl))bis(pyrrolidine-2,1-diyl))bis(3-methyl-1-oxobutane-1,2-diyl))dicarbamate], the EC50 is over 1000 pM.
With `CCCCCCOc1ccccc1Cn1c2cc(NC(=O)[C@@H]3CCCN3C(=O)[C@H](NC(=O)OC)c3ccccc3)ccc2c2ccc(NC(=O)[C@@H]3CCCN3C(=O)[C@H](NC(=O)OC)c3ccccc3)cc21` [Example 35, dimethyl ((1R,1′R)-((2S,2′S)-(((9-(2-(hexyloxy)benzyl)-9H-carbazole-2,7-diyl)bis(azanediyl))bis(carbonyl))bis(pyrrolidine-2,1-diyl))bis(2-oxo-1-phenylethane-2,1-diyl))dicarbamate], the EC50 is about 1000 pM.
Still for that read-out and setting: to `COCCOCCOc1cccc(Cn2c3cc(NC(=O)[C@@H]4CCCN4C(=O)[C@H](NC(=O)OC)c4ccccc4)ccc3c3ccc(NC(=O)[C@@H]4CCCN4C(=O)[C@H](NC(=O)OC)c4ccccc4)cc32)c1` [Example 40, dimethyl ((1R,1′R)-((2S,2′S)-(((9-(3-(2-(2-methoxyethoxy)ethoxy)benzyl)-9H-carbazole-2,7-diyl)bis(azanediyl))bis(carbonyl))bis(pyrrolidine-2,1-diyl))bis(2-oxo-1-phenylethane-2,1-diyl))dicarbamate] belongs 10 to 100 pM; to `CCCCC(CCCC)n1c2cc(NC(=O)[C@@H]3CCCN3C(=O)[C@H](NC(=O)OC)c3ccccc3)ccc2c2ccc(NC(=O)[C@@H]3CCCN3C(=O)[C@H](NC(=O)OC)c3ccccc3)cc21` [Example 46, dimethyl ((1R,1′R)-((2S,2′S)-(((9-(nonane-5-yl)-9H-carbazole-2,7-diyl)bis(azanediyl))bis(carbonyl))bis(pyrrolidine-2,1-diyl))bis(2-oxo-1-phenylethane-2,1-diyl))dicarbamate], about 10 pM.
